Test results from the supplement of paper PMC10307832.

How the values were obtained:
Assay in all cases: relative viability (nuclei count vs DMSO), 5 days (fraction); higher = more cells survive
BI-2536 + Luminespib = compound: CC[C@@H]1C(=O)N(C)c2cnc(Nc3ccc(C(=O)NC4CCN(C)CC4)cc3OC)nc2N1C1CCCC1 [BI-2536] + CCNC(=O)c1noc(-c2cc(C(C)C)c(O)cc2O)c1-c1ccc(CN2CCOCC2)cc1 [Luminespib] (partner 0.01 µM)
How it was run: (§1)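 Lung cancer cell lines were seeded in 1536-well plates and dosed by pin tool the next day, with either a single drug or a fixed anchor-drug dose combined with five library-drug doses (not always all listed) spaced in √10 steps. Five days later, one step fixed the cells and stained their nuclei (final 0.05% Triton X-100, 1% formaldehyde, 1 ug/ml Hoechst), and nuclei were counted on 4× images. Relative viability is the nuclei count in treated wells divided by the count in vehicle wells, and each value is the median of duplicate plates.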

[1] = compound: CC1CC(=O)N(C2=CN=C(N=C2N1C3CCCC3)NC4=C(C=C(C=C4)C(=O)NC5CCN(CC5)C)OC)C [NPK76-II-72-1] + C[C@@H](Oc1cc(-c2cnn(C3CCNCC3)c2)cnc1N)c1c(Cl)ccc(F)c1Cl [Crizotinib] (partner 1 µM)
How it was run: as §1

BI-2536 + Dasatinib = compound: CC[C@@H]1C(=O)N(C)c2cnc(Nc3ccc(C(=O)NC4CCN(C)CC4)cc3OC)nc2N1C1CCCC1 [BI-2536] + Cc1nc(Nc2ncc(C(=O)Nc3c(C)cccc3Cl)s2)cc(N2CCN(CCO)CC2)n1 [Dasatinib] (partner 0.075 µM)
How it was run: as §1

BI-2536 + Navitoclax = compound: CC[C@@H]1C(=O)N(C)c2cnc(Nc3ccc(C(=O)NC4CCN(C)CC4)cc3OC)nc2N1C1CCCC1 [BI-2536] + CC1(C)CCC(c2ccc(Cl)cc2)=C(CN2CCN(c3ccc(C(=O)NS(=O)(=O)c4ccc(N[C@H](CCN5CCOCC5)CSc5ccccc5)c(S(=O)(=O)C(F)(F)F)c4)cc3)CC2)C1 [Navitoclax] (partner 0.5 µM)
How it was run: as §1

Cell Line	relative viability (BI-2536 + Luminespib; first compound 0.01 µM)	relative viability (BI-2536 + Luminespib; first compound 0.03162 µM)	relative viability (BI-2536 + Luminespib; first compound 0.1 µM)	relative viability (BI-2536 + Luminespib; first compound 0.3162 µM)	relative viability (BI-2536 + Luminespib; first compound 1 µM)	relative viability ([1]; first compound 0.01 µM)	relative viability ([1]; first compound 0.03162 µM)	relative viability ([1]; first compound 0.1 µM)	relative viability ([1]; first compound 0.3162 µM)	relative viability ([1]; first compound 1 µM)	relative viability (BI-2536 + Dasatinib; first compound 0.01 µM)	relative viability (BI-2536 + Dasatinib; first compound 0.03162 µM)	relative viability (BI-2536 + Dasatinib; first compound 0.1 µM)	relative viability (BI-2536 + Dasatinib; first compound 0.3162 µM)	relative viability (BI-2536 + Dasatinib; first compound 1 µM)	relative viability (BI-2536 + Navitoclax; first compound 0.01 µM)	relative viability (BI-2536 + Navitoclax; first compound 0.03162 µM)	relative viability (BI-2536 + Navitoclax; first compound 0.1 µM)	relative viability (BI-2536 + Navitoclax; first compound 0.3162 µM)	relative viability (BI-2536 + Navitoclax; first compound 1 µM)
NCI-H1993	0.856	0.747	0.521	0.602	0.515	0.912	0.839	0.791	0.722	0.977	0.688	0.577	0.51	0.514	0.485	0.984	0.926	0.492	0.553	0.549
NCI-H2009	1.09	0.94	0.696	0.16	0.0773	0.915	1.12	0.974	1.01	1.15	0.256	0.248	0.169	0.137	0.0971	1.14	1.05	0.7	0.121	0.0887
NCI-H2023	0.774	0.755	0.107	0.0867	0.0902	0.655	0.571	0.648	0.508	0.733	0.587	0.463	0.346	0.0877	0.0801	0.984	0.92	0.723	0.0972	0.0716
NCI-H2085	0.396	0.5	0.384	0.29	0.262	0.864	0.962	1.03	0.778	1.01	0.26	0.232	0.232	0.157	0.19	1.04	1.13	0.704	0.208	0.272
NCI-H2087	0.161	0.182	0.139	0.136	0.157	0.844	0.786	0.82	0.902	1.01	0.913	0.926	0.509	0.105	0.0876	0.868	0.974	0.8	0.112	0.138
NCI-H2126	0.855	0.512	0.392	0.278	0.32	1.02	1.07	0.965	1.01	1.06	0.659	0.58	0.294	0.26	0.224	0.847	0.843	0.75	0.328	0.25
NCI-H2170	0.624	0.802	0.661	0.205	0.219	1.08	1.18	1.11		1.3	0.626	0.597	0.356	0.16	0.179	0.614	0.561	0.367	0.167	0.187
NCI-H2228	0.161	0.179	0.183	0.145	0.124	0.404	0.611	0.48	0.39	0.711	0.448	0.372	0.116	0.0877	0.0886	1.03	0.999	0.933	0.0826	0.121
